The supplement of paper PMC10307832

Tests used:
Assay in all cases: relative viability (nuclei count vs DMSO), 5 days (fraction); higher = more cells survive
NCI-H1975 = tested on: NCI-H1975
Procedure, shortened: (§1)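 Dosing by pin tool came one day after lung cancer cell lines were seeded in 1536-well plates, using either one drug or a fixed anchor-drug dose plus five library-drug doses (not always all listed) in √10 steps. After 5 days, nuclei were counted on 4× images. Relative viability is treated-well nuclei count divided by vehicle-well nuclei count, and values are medians of duplicate plates.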

SW 900 = tested on: SW 900
Procedure, shortened: as §1

LU99A = tested on: LU99A
Procedure, shortened: as §1

HARA = tested on: HARA
Procedure, shortened: as §1

HCC-827 = tested on: HCC-827
Procedure, shortened: as §1

HCC-44 = tested on: HCC-44
Procedure, shortened: as §1

NCI-H2342 = tested on: NCI-H2342
Procedure, shortened: as §1

LXF-289 = tested on: LXF-289
Procedure, shortened: as §1

NCI-H2023 = tested on: NCI-H2023
Procedure, shortened: as §1

HCC-366 = tested on: HCC-366
Procedure, shortened: as §1

LK-2 = tested on: LK-2
Procedure, shortened: as §1

PC-14 = tested on: PC-14
Procedure, shortened: as §1

HCC-15 = tested on: HCC-15
Procedure, shortened: as §1

NCI-H647 = tested on: NCI-H647
Procedure, shortened: as §1

COR-L 105 = tested on: COR-L 105
Procedure, shortened: as §1

COR-L23 = tested on: COR-L23
Procedure, shortened: as §1

NCI-H838 = tested on: NCI-H838
Procedure, shortened: as §1

HOP-62 = tested on: HOP-62
Procedure, shortened: as §1

NCI-H2085 = tested on: NCI-H2085
Procedure, shortened: as §1

CAL-12T = tested on: CAL-12T
Procedure, shortened: as §1

NCI-H522 = tested on: NCI-H522
Procedure, shortened: as §1

LC-2-ad = tested on: LC-2-ad
Procedure, shortened: as §1

NCI-H1944 = tested on: NCI-H1944
Procedure, shortened: as §1

Oc1nc(-c2ccc(C(F)(F)F)cc2)nc2c1CSCC2 [XAV939] + CC(=O)Nc1cccc(-n2c(=O)n(C3CC3)c(=O)c3c(Nc4ccc(I)cc4F)n(C)c(=O)c(C)c32)c1 [Trametinib] (partner 0.02 µM)
relative viability (NCI-H1975; first compound 0.08 µM): 0.359 | relative viability (NCI-H1975; first compound 0.253 µM): 0.296 | relative viability (NCI-H1975; first compound 0.8 µM): 0.35 | relative viability (NCI-H1975; first compound 2.53 µM): 0.275 | relative viability (SW 900; first compound 0.253 µM): 0.579 | relative viability (SW 900; first compound 0.8 µM): 0.955 | relative viability (SW 900; first compound 2.53 µM): 0.495 | relative viability (LU99A; first compound 0.08 µM): 0.678 | relative viability (LU99A; first compound 0.253 µM): 0.521 | relative viability (LU99A; first compound 0.8 µM): 0.524 | relative viability (LU99A; first compound 2.53 µM): 0.542 | relative viability (HARA; first compound 0.08 µM): 0.925 | relative viability (HARA; first compound 0.253 µM): 0.531 | relative viability (HARA; first compound 0.8 µM): 0.892 | relative viability (HARA; first compound 2.53 µM): 0.506 | relative viability (HCC-827; first compound 0.08 µM): 0.592 | relative viability (HCC-827; first compound 0.253 µM): 0.504 | relative viability (HCC-827; first compound 0.8 µM): 0.642 | relative viability (HCC-827; first compound 2.53 µM): 0.514 | relative viability (HCC-44; first compound 0.08 µM): 1.04 | relative viability (HCC-44; first compound 0.253 µM): 0.843 | relative viability (HCC-44; first compound 0.8 µM): 0.927 | relative viability (HCC-44; first compound 2.53 µM): 0.924 | relative viability (NCI-H2342; first compound 0.08 µM): 0.834 | relative viability (NCI-H2342; first compound 0.253 µM): 0.781 | relative viability (NCI-H2342; first compound 0.8 µM): 0.717 | relative viability (NCI-H2342; first compound 2.53 µM): 0.446 | relative viability (LXF-289; first compound 0.08 µM): 0.665 | relative viability (LXF-289; first compound 0.253 µM): 0.632 | relative viability (LXF-289; first compound 0.8 µM): 0.687 | relative viability (LXF-289; first compound 2.53 µM): 0.729 | relative viability (NCI-H2023; first compound 0.08 µM): 0.625 | relative viability (NCI-H2023; first compound 0.253 µM): 0.365 | relative viability (NCI-H2023; first compound 0.8 µM): 0.473 | relative viability (NCI-H2023; first compound 2.53 µM): 0.407 | relative viability (HCC-366; first compound 0.08 µM): 0.307 | relative viability (HCC-366; first compound 0.253 µM): 0.28 | relative viability (HCC-366; first compound 0.8 µM): 0.327 | relative viability (HCC-366; first compound 2.53 µM): 0.259 | relative viability (LK-2; first compound 0.08 µM): 0.788 | relative viability (LK-2; first compound 0.253 µM): 0.792 | relative viability (LK-2; first compound 0.8 µM): 0.703 | relative viability (LK-2; first compound 2.53 µM): 0.535 | relative viability (PC-14; first compound 0.08 µM): 0.833 | relative viability (PC-14; first compound 0.253 µM): 0.707 | relative viability (PC-14; first compound 0.8 µM): 0.671 | relative viability (PC-14; first compound 2.53 µM): 0.597 | relative viability (HCC-15; first compound 0.08 µM): 0.416 | relative viability (HCC-15; first compound 0.253 µM): 0.342 | relative viability (HCC-15; first compound 0.8 µM): 0.376 | relative viability (HCC-15; first compound 2.53 µM): 0.304 | relative viability (NCI-H647; first compound 0.08 µM): 0.446 | relative viability (NCI-H647; first compound 0.253 µM): 0.433 | relative viability (NCI-H647; first compound 0.8 µM): 0.386 | relative viability (NCI-H647; first compound 2.53 µM): 0.372 | relative viability (COR-L 105; first compound 0.08 µM): 0.43 | relative viability (COR-L 105; first compound 0.253 µM): 0.433 | relative viability (COR-L 105; first compound 0.8 µM): 0.4 | relative viability (COR-L 105; first compound 2.53 µM): 0.414 | relative viability (COR-L23; first compound 0.08 µM): 0.651 | relative viability (COR-L23; first compound 0.253 µM): 0.597 | relative viability (COR-L23; first compound 0.8 µM): 0.543 | relative viability (COR-L23; first compound 2.53 µM): 0.531 | relative viability (NCI-H838; first compound 0.08 µM): 0.595 | relative viability (NCI-H838; first compound 0.253 µM): 0.441 | relative viability (NCI-H838; first compound 0.8 µM): 0.392 | relative viability (NCI-H838; first compound 2.53 µM): 0.39 | relative viability (HOP-62; first compound 0.08 µM): 0.392 | relative viability (HOP-62; first compound 0.253 µM): 0.329 | relative viability (HOP-62; first compound 0.8 µM): 0.411 | relative viability (HOP-62; first compound 2.53 µM): 0.312 | relative viability (NCI-H2085; first compound 0.08 µM): 0.587 | relative viability (NCI-H2085; first compound 0.253 µM): 0.436 | relative viability (NCI-H2085; first compound 0.8 µM): 0.432 | relative viability (NCI-H2085; first compound 2.53 µM): 0.314 | relative viability (CAL-12T; first compound 0.08 µM): 0.346 | relative viability (CAL-12T; first compound 0.253 µM): 0.257 | relative viability (CAL-12T; first compound 0.8 µM): 0.272 | relative viability (CAL-12T; first compound 2.53 µM): 0.223 | relative viability (NCI-H522; first compound 0.08 µM): 0.88 | relative viability (NCI-H522; first compound 0.253 µM): 0.713 | relative viability (NCI-H522; first compound 0.8 µM): 0.888 | relative viability (NCI-H522; first compound 2.53 µM): 0.725 | relative viability (LC-2-ad; first compound 0.08 µM): 0.932 | relative viability (LC-2-ad; first compound 0.253 µM): 0.899 | relative viability (LC-2-ad; first compound 0.8 µM): 0.922 | relative viability (LC-2-ad; first compound 2.53 µM): 0.79 | relative viability (NCI-H1944; first compound 0.08 µM): 0.418 | relative viability (NCI-H1944; first compound 0.253 µM): 0.388 | relative viability (NCI-H1944; first compound 0.8 µM): 0.412 | relative viability (NCI-H1944; first compound 2.53 µM): 0.292
